From US4178443A, “Derivatives of 7 [-substituted oxyimins acetamido] cephalosporins” (Hoffmann-La Roche Inc., priority 1977, dated 1979)
Converted amounts (≈) assume the structure as drawn.

Experiments:
[1] = system: Escherichia coli; experiment: Activity in vitro: Minimum Inhibitory Concentration; type: cell-based
From the text: (§1) Activity in vitro: Minimum Inhibitory Concentration (μg/ml)

[2] = system: Haemophilus influenzae; experiment: as above; type: cell-based
From the text: as §1

[3] = system: Klebsiella pneumoniae; experiment: as above; type: cell-based
From the text: as §1

[4] = system: Proteus mirabilis; experiment: as above; type: cell-based
From the text: as §1

[5] = system: Proteus rettgeri; experiment: as above; type: cell-based; conditions: Providencia rettgeri
From the text: as §1

[6] = system: Proteus vulgaris; experiment: as above; type: cell-based
From the text: as §1

[7] = system: Staphylococcus aureus ATCC 6538; experiment: as above; type: cell-based; conditions: ATCC6538
From the text: as §1

[8] = system: Staphylococcus aureus Penicillin-resistant strain; experiment: as above; type: cell-based
From the text: as §1

[9] = system: Proteus mirabilis; experiment: Activity in vivo: survival of mice infected intraperitoneally with Proteus mirabilis; conditions: sc, 96 h; mice infected i.p. with Proteus mirabilis; compound s.c. one hour after infection; survival on 4th day; by interpolation; read-out: CD50 (dosage at which 50% of the mice survive)
Description: Groups of 10 mice are infected intraperitoneally with an aqueous suspension of Proteus mirabilis. One hour after the infection the test compound is administered subcutaneously. The number of surviving mice is determined on the 4th day. Various dosages of test compound are administered and the dosage at which 50% of the mice survice (CD50, mg/kg) is determined by interpolation.

[10] = Toxicity (mice, 24 hour values); conditions: mouse, in vivo
Description: TOXICITY (mice, 24 hour values)

[11] = Haemophilus influenzae strain 1
[12] = Haemophilus influenzae strain 2
[13] = Haemophilus influenzae strain 3
[14] = Haemophilus influenzae strain 4
[15] = Haemophilus influenzae strain 5
[16] = Haemophilus influenzae strain 6
[17] = Haemophilus influenzae strain 7

Row | SMILES | MIC ([1]; Escherichia coli strain 1) [µg/mL] | MIC ([1]; Escherichia coli strain 2) [µg/mL] | MIC [2, 11] [µg/mL] | MIC [2, 12] [µg/mL] | MIC [2, 13] [µg/mL] | MIC [2, 14] [µg/mL] | MIC [2, 15] [µg/mL] | MIC [2, 16] [µg/mL] | MIC [2, 17] [µg/mL] | MIC [3] [µg/mL] | MIC ([4]; Proteus mirabilis strain 1) [µg/mL] | MIC ([4]; Proteus mirabilis strain 2) [µg/mL] | MIC [5] [µg/mL] | MIC [6] [µg/mL] | MIC [7] [µg/mL] | MIC [8] [µg/mL] | ED50 [9] [mg/kg] | LD50 at 24 h ([10]; iv, mice, 24 hour values) [mg/kg] | also measured
1 | CON=C(C(=O)N[C@@H]1C(=O)N2C(C(=O)O)=C(CSc3nc(=O)c(=O)[nH]n3C)CS[C@H]12)c1ccco1 [Compound A, (7R)-7-[2-(2-furyl)-2-(methoxyimino)acetamido]-3-[[(1,2,5,6-tetrahydro-2-methyl-5,6-dioxo-as-triazin-3-yl)thio]methyl]-3-cephem-4-carboxylic acid] | 0.63 (≈ 1.21 µM) | 40 (≈ 76.6 µM) | 1.2 (≈ 2.3 µM) | 0.16 (≈ 0.306 µM) | 0.16 (≈ 0.306 µM) | 0.16 (≈ 0.306 µM) | 0.08 (≈ 0.153 µM) | 0.16 (≈ 0.306 µM) | 0.08 (≈ 0.153 µM) | 10 (≈ 19.1 µM) | 2.5 (≈ 4.78 µM) | 5 (≈ 9.57 µM) | 0.63 (≈ 1.21 µM) | 5 (≈ 9.57 µM) | 2.5 (≈ 4.78 µM) | 5 (≈ 9.57 µM) | 0.09 | 500 to 1000 | LD50 at 24 h ([10]; po, mice, 24 hour values): > 5000 mg/kg; LD50 at 24 h ([10]; sc, mice, 24 hour values): > 4000 mg/kg
2 | CON=C(C(=O)N[C@@H]1C(=O)N2C(C(=O)O)=C(CSc3ccn(N)c(=O)n3)CS[C@H]12)c1ccco1 [Compound B, (7R)-7-[2-(2-furyl)-2-(methoxyimino)acetamido]-3-[[(1-amino-1,2-dihydro-2-oxo-4-pyrimidinyl)thio]-methyl]-3-cephem-4-carboxylic acid] | 2.5 (≈ 4.94 µM) | 20 (≈ 39.5 µM) | 2.5 (≈ 4.94 µM) | 0.63 (≈ 1.24 µM) | 0.63 (≈ 1.24 µM) | 0.31 (≈ 0.612 µM) | 0.31 (≈ 0.612 µM) | 0.31 (≈ 0.612 µM) | 0.31 (≈ 0.612 µM) | 20 (≈ 39.5 µM) | 10 (≈ 19.7 µM) | 40 (≈ 79 µM) | 2.5 (≈ 4.94 µM) | 40 (≈ 79 µM) | 0.16 (≈ 0.316 µM) | 1.2 (≈ 2.37 µM) | 3 | 1000 to 2000 | 
3 | CON=C(C(=O)N[C@@H]1C(=O)N2C(C(=O)O)=C(CSc3nc(=O)c(=O)[nH]n3C)CS[C@H]12)c1ccccc1 [Compound C, (7R)-7-[2-(phenyl)-2-(methoxyimino)acetamido]-3-[[(1,2,5,6-tetrahydro-2-methyl-5,6-dioxo-as-triazin-3-yl)thio]methyl]-3-cephem-4-carboxylic acid] | 1.2 (≈ 2.25 µM) | 10 (≈ 18.8 µM) | 2.5 (≈ 4.69 µM) | 0.16 (≈ 0.3 µM) | 0.16 (≈ 0.3 µM) | 0.16 (≈ 0.3 µM) | 0.08 (≈ 0.15 µM) | 0.08 (≈ 0.15 µM) | 0.08 (≈ 0.15 µM) | 20 (≈ 37.6 µM) | 10 (≈ 18.8 µM) | 20 (≈ 37.6 µM) | 0.63 (≈ 1.18 µM) | 10 (≈ 18.8 µM) | 2.5 (≈ 4.69 µM) | 2.5 (≈ 4.69 µM) | 0.6 | 1000 to 2000 | 
4 | CON=C(C(=O)N[C@@H]1C(=O)N2C(C(=O)O)=C(CSc3n[nH]c(=O)c(=O)n3C)CS[C@H]12)c1ccco1 [Compound D, (7R)-7-[2-(2-furyl)-2-(methoxyimino)acetamido]-3-[[(1,4,5,6-tetrahydro-4-methyl-5,6-dioxo-as-triazin-3-yl)thio]methyl]-3-cephem-4-carboxylic acid] | 0.16 (≈ 0.306 µM) | 5 (≈ 9.57 µM) | 2.5 (≈ 4.78 µM) | 0.31 (≈ 0.593 µM) | 0.31 (≈ 0.593 µM) | 0.31 (≈ 0.593 µM) | 0.16 (≈ 0.306 µM) | 0.16 (≈ 0.306 µM) | 0.16 (≈ 0.306 µM) | 5 (≈ 9.57 µM) | 10 (≈ 19.1 µM) | 20 (≈ 38.3 µM) | 0.63 (≈ 1.21 µM) | 1.2 (≈ 2.3 µM) | 0.63 (≈ 1.21 µM) | 0.63 (≈ 1.21 µM) | 0.7 | 500 to 1000 | LD50 at 24 h ([10]; po, mice, 24 hour values): > 5000 mg/kg; LD50 at 24 h ([10]; sc, mice, 24 hour values): > 4000 mg/kg
5 | CON=C(C(=O)N[C@@H]1C(=O)N2C(C(=O)O)=C(CSc3nc(=O)c(=O)[nH]n3C)CS[C@H]12)c1cccs1 [Compound E] | 2.5 (≈ 4.64 µM) | 20 (≈ 37.1 µM) | 2.5 (≈ 4.64 µM) | 0.16 (≈ 0.297 µM) | 0.16 (≈ 0.297 µM) | 0.16 (≈ 0.297 µM) | 0.08 (≈ 0.149 µM) | 0.08 (≈ 0.149 µM) | 0.08 (≈ 0.149 µM) | 40 (≈ 74.3 µM) | 10 (≈ 18.6 µM) | 20 (≈ 37.1 µM) | 2.5 (≈ 4.64 µM) | 10 (≈ 18.6 µM) | 2.5 (≈ 4.64 µM) | 2.5 (≈ 4.64 µM) | 1.15 |  | LD50 at 24 h ([10]; iv): 2000 to 4000 mg/kg
6 | CCn1nc(SCC2=C(C(=O)O)N3C(=O)[C@@H](NC(=O)C(=NOC)c4ccco4)[C@H]3SC2)[nH]c(=O)c1=O [Compound F] | 1.2 (≈ 2.24 µM) | 80 (≈ 149 µM) | 2.5 (≈ 4.66 µM) | 0.31 (≈ 0.578 µM) | 1.2 (≈ 2.24 µM) | 0.16 (≈ 0.298 µM) | 0.08 (≈ 0.149 µM) | 0.08 (≈ 0.149 µM) | 0.16 (≈ 0.298 µM) | 40 (≈ 74.6 µM) | 20 (≈ 37.3 µM) | 40 (≈ 74.6 µM) | 10 (≈ 18.6 µM) | 20 (≈ 37.3 µM) | 5 (≈ 9.32 µM) | 5 (≈ 9.32 µM) | 0.85 |  | LD50 at 24 h ([10]; iv): 1000 to 2000 mg/kg
7 | Cn1c(SCC2=C(C(=O)O)N3C(=O)[C@@H](NC(=O)C(=NOCC(N)=O)c4ccco4)[C@H]3SC2)n[nH]c(=O)c1=O [Compound G, (7R)-7-[2-[(carbamoylmethoxy)imino]-2-(2-furyl)-acetamido]-3-[[(1,4,5,6-tetrahydro-4-methyl-5,6-dioxo-as-triazin-3-yl)thio]methyl]-3-cephem-4-carboxylic acid] | 0.31 (≈ 0.548 µM) | 5 (≈ 8.84 µM) | 5 (≈ 8.84 µM) | 0.63 (≈ 1.11 µM) | 0.31 (≈ 0.548 µM) | 0.63 (≈ 1.11 µM) | 0.31 (≈ 0.548 µM) | 0.63 (≈ 1.11 µM) | 0.63 (≈ 1.11 µM) | 2.5 (≈ 4.42 µM) | 5 (≈ 8.84 µM) | 10 (≈ 17.7 µM) | 0.63 (≈ 1.11 µM) | 1.2 (≈ 2.12 µM) | 1.2 (≈ 2.12 µM) | 1.2 (≈ 2.12 µM) | 0.8 | > 4000 | 
